In ChEMBL document CHEMBL1152708, “Deconstructing estradiol: removal of B-ring generates compounds which are potent and subtype-selective estrogen receptor agonists” (Bioorg Med Chem Lett, 2009):

Columns and labels:
[1] = target: Estrogen receptor beta (Homo sapiens) (UniProt Q92731); assay: Displacement of [3H]estradiol form ERbeta assessed as relative binding affinity relative to estradiol
[2] = target: T1, Estrogen receptor (Homo sapiens) (UniProt P03372); assay: Displacement of [3H]estradiol form ERalpha assessed as relative binding affinity relative to estradiol
T1 sequence (whole entry): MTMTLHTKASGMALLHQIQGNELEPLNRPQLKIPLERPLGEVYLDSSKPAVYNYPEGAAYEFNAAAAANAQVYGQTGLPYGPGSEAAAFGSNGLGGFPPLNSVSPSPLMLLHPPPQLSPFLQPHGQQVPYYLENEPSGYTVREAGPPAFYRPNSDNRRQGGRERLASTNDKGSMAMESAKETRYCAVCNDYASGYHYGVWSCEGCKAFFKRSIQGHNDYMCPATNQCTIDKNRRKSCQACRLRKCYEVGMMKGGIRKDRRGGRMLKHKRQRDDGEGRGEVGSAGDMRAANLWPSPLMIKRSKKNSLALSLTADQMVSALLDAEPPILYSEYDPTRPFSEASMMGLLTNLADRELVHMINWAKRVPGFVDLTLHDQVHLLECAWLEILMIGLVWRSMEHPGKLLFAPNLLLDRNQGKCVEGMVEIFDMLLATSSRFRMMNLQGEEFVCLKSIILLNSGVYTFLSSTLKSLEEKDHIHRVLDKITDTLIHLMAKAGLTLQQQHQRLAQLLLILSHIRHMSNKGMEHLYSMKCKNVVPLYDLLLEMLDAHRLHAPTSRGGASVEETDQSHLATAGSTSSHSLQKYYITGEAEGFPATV

[3] = Selectivity ratio of RBA for ERbeta to RBA for ERalpha
[4] = target: T1, Estrogen receptor (Homo sapiens); assay: Activity at ERalpha expressed in CHO cells co-transfected with ERE plasmid assessed as relative transcriptional activation at 10 nM by luciferase reporter assay relative to estradiol; format: cell-based
[5] = target: Estrogen receptor beta (Homo sapiens) (UniProt Q92731); assay: Activity at ERbeta expressed in CHO cells co-transfected with ERE plasmid assessed as relative transcriptional activation at 10 nM by luciferase reporter assay relative to estradiol; format: cell-based

Estrogen receptor beta (Homo sapiens), sequence (Q92731 whole entry): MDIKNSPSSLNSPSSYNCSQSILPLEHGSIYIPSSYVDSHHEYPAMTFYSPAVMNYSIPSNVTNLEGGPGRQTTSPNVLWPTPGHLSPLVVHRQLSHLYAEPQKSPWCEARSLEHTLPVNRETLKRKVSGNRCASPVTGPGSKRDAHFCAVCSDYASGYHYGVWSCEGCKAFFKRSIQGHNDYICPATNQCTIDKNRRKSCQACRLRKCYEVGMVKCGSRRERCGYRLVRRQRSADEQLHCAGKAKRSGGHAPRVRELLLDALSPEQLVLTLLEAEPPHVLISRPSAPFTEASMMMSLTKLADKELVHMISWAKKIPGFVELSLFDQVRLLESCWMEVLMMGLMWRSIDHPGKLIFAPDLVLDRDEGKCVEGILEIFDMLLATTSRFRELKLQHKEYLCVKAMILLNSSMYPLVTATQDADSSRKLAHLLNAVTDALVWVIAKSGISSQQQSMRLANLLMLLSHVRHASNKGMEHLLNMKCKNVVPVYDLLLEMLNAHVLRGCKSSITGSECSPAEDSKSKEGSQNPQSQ

Compound | RBA [1] [%] | RBA [2] [%] | Selectivity ratio [3] | Activity [4] [%] | Activity [5] [%]
C[C@]12CC[C@H](c3ccc(O)cc3F)C[C@@H]1CC[C@@H]2O | 135 | 27 | 5 | 44 | 146
O=c1c(-c2ccc(O)cc2)coc2cc(O)cc(O)c12 |  |  | 41 |  | 
C[C@]12CC[C@H](c3cc(F)c(O)c(F)c3F)C[C@@H]1CC[C@@H]2O | 1.73 | 0.19 | 9.1 |  | 
C[C@]12CC[C@@H](c3ccc(O)cc3)C[C@@H]1CC[C@@H]2O | 0.59 | 0.06 | 9.8 |  | 
C[C@]12CC[C@H](c3ccc(O)c(F)c3F)C[C@@H]1CC[C@@H]2O | 43 | 4.6 | 9.3 |  | 
Cc1cc(O)ccc1[C@H]1CC[C@@]2(C)[C@@H](CC[C@@H]2O)C1 | 33.6 | 2.8 | 12 | 9.7 | 149

The next lines start with the values.

RBA [1] [%] | RBA [2] [%] | Selectivity ratio [3] | Activity [4] [%] | Activity [5] [%] | Compound
8.7 | 1 | 8.7 | 8.3 | 14 | C[C@]12CC[C@H](c3ccc(O)c(F)c3)C[C@@H]1CC[C@@H]2O
0.28 | 0.04 | 7 |  |  | C[C@]12CC[C@H](c3cc(F)c(O)c(F)c3)C[C@@H]1CC[C@@H]2O
 | 49 | 3.4 |  |  | C[C@]12CC[C@H](c3ccc(O)cc3Cl)C[C@@H]1CC[C@@H]2O
21.5 | 1.5 | 14 | 4.3 | 164 | C[C@]12CC[C@H](c3ccc(O)cc3)C[C@@H]1CC[C@@H]2O
3.3 | 0.38 | 8.7 |  |  | C[C@]12CC[C@H](c3cc(F)c(O)cc3F)C[C@@H]1CC[C@@H]2O
 |  | 226 |  |  | C=Cc1cc(O)cc2nc(-c3ccc(O)c(F)c3)oc12
